The text below walks through data of US11000492B2, “Fluorenone compound for the treatment of gout” (The Trustees of Columbia University in the City of New York, priority 2015, dated 2021).

The subject of data set [1] is serum uric acid. Description: Serum uric acid after systemic intraperitoneal administration in guinea pigs. The class given is in vivo.
Data set [2] concerns gout. Nature of the data set: Administration of DPOFA to subjects afflicted with or at risk of gout (Examples 3-6). The class given is in vivo, human. As for the experimental part: An amount of compound DPOFA is administered to a human subject afflicted with gout. […] An amount of compound DPOFA in combination with allopurinol or febuxostat is administered to a subject afflicted with gout. […] An amount of compound DPOFA is administered to a subject with a history of gout flares or who is at risk for a gout flare. […] An amount of compound DPOFA in combination with allopurinol or febuxostat is administered to a subject with history of gout flares or who is at risk for a gout flare.

In data set [3] the test system is uric acid levels in the urine. Description: Uric acid levels in the urine of guinea pig. It counts as in vivo. From the text: The fluorenone DPOFA, (R)-(+)-(5,6-dichloro-2,3,9,9a-tetrahydro-3-oxo-9a-propyl-1H-fluoren-7-yl)oxy]acetic acid, was originally developed for trauma-induced brain damage.
The conditions of data set [4]: humans; originally studied for treating brain edema; cited from earlier work.
Data set [5] has as its system serum urate. The settings on record: cited from earlier work.
Data set [6] relates to serum uric acid. The settings on record: cited from earlier work; for patients meeting target serum levels (serum uric acid): patients with at least one measurable tophus.
Where [7] appears, read: particularly in the 400 mg group.

Entries after “also recorded” stand apart in the source; their conditions may differ. Like-named read-outs stand apart in the source and are kept apart here.

Regarding `CCC[C@]12CCC(=O)C=C1c1c(cc(OCC(=O)O)c(Cl)c1Cl)C2` [DPOFA], the “reduction in the serum uric acid level” value in data set [1] (20 mg intraperitoneally) is “pronounced reduction; also recorded: reduced uric acid levels in the blood”. Also, in data set [1] (following systemic administration of 20 mg), the “time point of maximum reduction of uric acid” value came to 7 h. Besides, the “serum uric acid levels in subject afflicted with gout” value in data set [2] (human subject afflicted with gout, Example 3) is “reduces serum uric acid levels”. In addition, the “treating gout, combination versus each compound alone” value in data set [2] (in combination with allopurinol or febuxostat, Example 4) is on record as “more effective in treating the gout than each compound administered alone”. Moreover, in data set [2] (in combination with allopurinol or febuxostat, Example 6), the “preventing gout, combination versus each compound alone” value is recorded as “more effective in preventing the gout than each compound administered alone”. In addition, the “prevention of gout flares” value in data set [2] (subject with a history of gout flares or at risk, Example 5) is “effective to prevent gout flares”. Also, the “uric acid levels in the urine” value in data set [3] was “increases uric acid levels in the urine”. The “crossing of the blood-brain barrier” value in data set [4] is on record as “failed to cross the blood-brain barrier”.
With `CCCN(CCC)S(=O)(=O)c1ccc(C(=O)O)cc1` [probenecid], the “patients achieving target serum urate concentrations (<0.36 mmol/l)” value was 37% in data set [5] (allopurinol combination treatment group, 10/27) and 33% in data set [5] (probenecid monotherapy group, 10/30). In addition, in data set [5] (human, in vivo), the “adverse effects, share of subjects tested” value is 19%.
On to `O=C(O)CSc1nnc(Br)n1-c1ccc(C2CC2)c2ccccc12` [lesinurad], for which, in data set [6] (200 mg dose), the “improvement at six months (primary endpoint)” value is reported as “failed to show a significant improvement”. Also, the “proportion of subjects achieving a complete resolution of at least one tophus by month 12” value in data set [6] (combination with febuxostat) is “did not result in a significant difference”. For the same molecule, the “patients meeting target serum levels (serum uric acid)” value in data set [6] (lesinurad 400 mg in combination with febuxostat) is 76%. In data set [6] (setting [7]), the “rate of renal-related AEs” value is “higher rate of renal-related AEs” and the serum creatinine levels result was “rise in serum creatinine levels”.
As to `Cc1nc(-c2ccc(OCC(C)C)c(C#N)c2)sc1C(=O)O` [febuxostat], the “patients meeting target serum levels (serum uric acid)” value in data set [6] (febuxostat alone) was 46%.
